This is an account of results in US8889668B2, “Oxadiazole diaryl compounds” (Merck Serono SA, priority 2007, dated 2014).

S1P1, sequence (P21453 whole entry, species assumed): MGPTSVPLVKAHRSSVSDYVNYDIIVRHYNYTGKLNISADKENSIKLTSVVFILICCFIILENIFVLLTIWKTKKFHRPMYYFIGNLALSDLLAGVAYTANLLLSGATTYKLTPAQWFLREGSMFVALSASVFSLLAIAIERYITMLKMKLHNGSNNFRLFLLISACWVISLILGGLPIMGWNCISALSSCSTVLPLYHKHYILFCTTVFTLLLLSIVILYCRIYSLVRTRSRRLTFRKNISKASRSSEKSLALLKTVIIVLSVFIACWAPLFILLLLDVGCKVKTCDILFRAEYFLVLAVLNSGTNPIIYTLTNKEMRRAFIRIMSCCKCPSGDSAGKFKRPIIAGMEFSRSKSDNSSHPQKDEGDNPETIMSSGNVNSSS

This assay addresses S1P1 (Homo sapiens (Human), UniProt P21453). In words: 35S-GTPγS binding, membranes from CHO cells expressing S1P1. Type of assay: biochemical. The note with it: 60 min 30° C., read-out: S1P1 GTPgS EC50. A general note: GTPγS is a poorly hydrolysed GTP analogue; its binding reports G protein activation.
The EC50 is the concentration needed to bring the measured effect to its halfway point. In the case of `CN(c1ccc(-c2nc(-c3ccccc3OC(F)(F)F)no2)cc1[N+](=O)[O-])C1CCCCC1` [Compound I5, N-cyclohexyl-N-methyl-2-nitro-4-{3-[2-(trifluoromethoxy)phenyl]-1,2,4-oxadiazol-5-yl}aniline], the EC50 amounted to 589 nM.

For the compound `COc1ccccc1-c1noc(-c2ccc(N3CCOCC3)c(N)c2)n1` [Compound I6, 5-[3-(2-methoxyphenyl)-1,2,4-oxadiazol-5-yl]-2-morpholin-4-ylaniline], the concentration for a half-maximal effect (EC50) amounted to 712 nM.

Regarding `CCOc1ccccc1-c1noc(-c2ccc(N3CCCCC3)c([N+](=O)[O-])c2)n1` [Compound I7, 1-{4-[3-(2-ethoxyphenyl)-1,2,4-oxadiazol-5-yl]-2-nitrophenyl}piperidine], the EC50 amounted to 254 nM.

Regarding `O=[N+]([O-])c1cc(-c2nc(-c3ccccc3OC(F)(F)F)no2)ccc1N1CCCC(F)(F)C1` [Compound I11, 3,3-difluoro-1-(2-nitro-4-{3-[2-(trifluoromethoxy)phenyl]-1,2,4-oxadiazol-5-yl}phenyl)piperidine], the EC50 was 80 nM.

Consider `COc1ccccc1-c1noc(-c2ccc(N3CCCC3)c([N+](=O)[O-])c2)n1` [Compound I13, 3-(2-methoxyphenyl)-5-(3-nitro-4-pyrrolidin-1-ylphenyl)-1,2,4-oxadiazole], for which the half-maximal effective concentration (EC50) was found to be 132 nM.

For `O=[N+]([O-])c1cc(-c2nc(-c3ccccc3OC(F)(F)F)no2)ccc1N1CCCC1` [Compound I14, 5-(3-nitro-4-pyrrolidin-1-ylphenyl)-3-[2-(trifluoromethoxy)phenyl]-1,2,4-oxadiazole], the EC50 is 428 nM.

For `O=[N+]([O-])c1cc(-c2nc(-c3ccccc3OC(F)(F)F)no2)ccc1N1CCCCCC1` [Compound I15, 1-(2-nitro-4-{3-[2-(trifluoromethoxy)phenyl]-1,2,4-oxadiazol-5-yl}phenyl)azepane], the EC50 turned out to be 1130 nM.

For `COc1ccccc1-c1noc(-c2ccc(N3CCCCCC3)c([N+](=O)[O-])c2)n1` [Compound I16, 1-{4-[3-(2-methoxyphenyl)-1,2,4-oxadiazol-5-yl]-2-nitrophenyl}azepane], the EC50 worked out at 228 nM.

For the compound `O=[N+]([O-])c1cc(-c2nc(-c3ccccc3OC(F)(F)F)no2)ccc1N1CCOCC1` [Compound I17, 4-(2-nitro-4-{3-[2-(trifluoromethoxy)phenyl]-1,2,4-oxadiazol-5-yl}phenyl)morpholine], the EC50 amounted to 135 nM.

Regarding `COc1ccccc1-c1noc(-c2ccc(-c3ccccc3C(F)(F)F)c(C)c2)n1` [Compound I24, 3-(2-methoxyphenyl)-5-[2-methyl-2′-(trifluoromethyl)biphenyl-4-yl]-1,2,4-oxadiazole], the half-maximal effective concentration (EC50) stood at 57 nM.

Consider `CC(C)Cc1ccc(-c2nc(-c3ccccc3OC(F)(F)F)no2)cc1` [Compound I30, 5-(4-isobutylphenyl)-3-[2-(trifluoromethoxy)phenyl]-1,2,4-oxadiazole], for which the EC50 worked out at 64 nM.

Turning to `O=[N+]([O-])c1cc(-c2nc(-c3ccccc3OC(F)(F)F)no2)ccc1N1CCCCC1` [Compound I31, 1-(2-nitro-4-{3-[2-(trifluoromethoxy)phenyl]-1,2,4-oxadiazol-5-yl}phenyl)piperidine], the concentration for a half-maximal effect (EC50) worked out at 58 nM.

On to `COc1ccccc1-c1noc(-c2ccc(N3CCCC(F)(F)C3)c(N(S(C)(=O)=O)S(C)(=O)=O)c2)n1` [Compound I37, N-dimethanesulfonyl-2-(3,3-difluoropiperidin-1-yl)-5-{3-[2-(methoxy)phenyl]-1,2,4-oxadiazol-5-yl}aniline], for which the half-maximal effective concentration (EC50) turned out to be 921 nM.

As to `CC1CCC(C)N1c1ccc(-c2nc(-c3ccccc3OC(F)(F)F)no2)cc1[N+](=O)[O-]` (stereo not shown) [Compound I38, 5-[4-(2,5-dimethylpyrrolidin-1-yl)-3-nitrophenyl]-3-[2-(trifluoromethoxy)phenyl]-1,2,4-oxadiazole], the 50% effective concentration (EC50) worked out at 4470 nM.

`COc1ccc(F)cc1-c1noc(-c2ccc(N3C(C)CCC3C)c([N+](=O)[O-])c2)n1` (stereo not shown) [Compound I39, 5-[4-(2,5-dimethylpyrrolidin-1-yl)-3-nitrophenyl]-3-(5-fluoro-2-methoxyphenyl)-1,2,4-oxadiazole]: the EC50 turned out to be 267 nM.

Turning to `COc1ccccc1-c1noc(-c2ccc(-c3ccccc3OC)c(C)c2)n1` [Compound I40, 5-(2′-methoxy-2-methylbiphenyl-4-yl)-3-(2-methoxyphenyl)-1,2,4-oxadiazole], the EC50 stood at 27 nM.

As to `Nc1cc(-c2nc(-c3ccccc3OC(F)(F)F)no2)ccc1N1CCCC(F)(F)C1` [Compound I41, 2-(3,3-difluoropiperidin-1-yl)-5-{3-[2-(trifluoromethoxy)phenyl]-1,2,4-oxadiazol-5-yl}aniline], the EC50 came to 116 nM.

Take `COc1ccccc1-c1noc(-c2ccc(N3C(C)CCC3C)c([N+](=O)[O-])c2)n1` (stereo not shown) [Compound I42, 5-[4-(2,5-dimethylpyrrolidin-1-yl)-3-nitrophenyl]-3-(2-methoxyphenyl)-1,2,4-oxadiazole]: the concentration giving a half-maximal response (EC50) amounted to 1250 nM.

`CS(=O)(=O)Nc1cc(-c2nc(-c3ccccc3OC(F)(F)F)no2)ccc1N1CCCC(F)(F)C1` [Compound I43, N-(2-(3,3-difluoropiperidin-1-yl)-5-{3-[2-(trifluoromethoxy)phenyl]-1,2,4-oxadiazol-5-yl}phenyl)methanesulfonamide]: the half-maximal effective concentration (EC50) amounted to 39 nM.

For `COc1ccccc1-c1noc(-c2ccc(-c3ccccc3C)c(OC)c2)n1` [Compound I46, 5-(2-methoxy-2′-methylbiphenyl-4-yl)-3-(2-methoxyphenyl)-1,2,4-oxadiazole], the EC50 was determined as 33 nM.

`COc1ccc(-c2ccc(-c3nc(-c4ccccc4OC)no3)cc2C)c(OC)c1` [Compound I47, 5-(2′,4′-dimethoxy-2-methylbiphenyl-4-yl)-3-(2-methoxyphenyl)-1,2,4-oxadiazole]: the concentration giving a half-maximal response (EC50) is 1200 nM.

On to `Cc1cc(-c2nc(-c3ccccc3OC(F)(F)F)no2)ccc1-c1c(C)noc1C` [Compound I49, 5-[4-(3,5-dimethylisoxazol-4-yl)-3-methylphenyl]-3-[2-(trifluoromethoxy)phenyl]-1,2,4-oxadiazole], for which the EC50 is 191 nM.

Take `COc1ccccc1-c1noc(-c2ccc(-c3c(C)noc3C)c(C)c2)n1` [Compound I50, 5-[4-(3,5-dimethylisoxazol-4-yl)-3-methylphenyl]-3-(2-methoxyphenyl)-1,2,4-oxadiazole]: the EC50 was 172 nM.

In the case of `COCCN(CCOC)c1ccc(-c2nc(-c3cc(F)ccc3OC)no2)cc1[N+](=O)[O-]` [Compound I51, 4-[3-(5-fluoro-2-methoxyphenyl)-1,2,4-oxadiazol-5-yl]-N,N-bis(2-methoxyethyl)-2-nitroaniline], the EC50 is 85 nM.

For `COCCN(CCOC)c1ccc(-c2nc(-c3ccccc3OC)no2)cc1[N+](=O)[O-]` [Compound I52, N,N-bis(2-methoxyethyl)-4-[3-(2-methoxyphenyl)-1,2,4-oxadiazol-5-yl]-2-nitroaniline], the concentration giving a half-maximal response (EC50) is 295 nM.

Regarding `COc1ccc(-c2ccc(-c3nc(-c4ccccc4OC(F)(F)F)no3)cc2C)c(OC)c1` [Compound I56, 5-(2′,4′-dimethoxy-2-methylbiphenyl-4-yl)-3-[2-(trifluoromethoxy)phenyl]-1,2,4-oxadiazole], the EC50 was determined as 302 nM.

In the case of `Cc1cc(-c2nc(-c3ccccc3OC(F)(F)F)no2)ccc1N1CCCCC1` [Compound I58, 1-(2-methyl-4-{3-[2-(trifluoromethoxy)phenyl]-1,2,4-oxadiazol-5-yl}phenyl)piperidine], the half-maximal effective concentration (EC50) worked out at 39 nM.

With `COc1ccccc1-c1noc(-c2ccc(N3CCCCC3)c(C(F)(F)F)c2)n1` [Compound I59, 1-[4-[3-(2-methoxyphenyl)-1,2,4-oxadiazol-5-yl]-2-(trifluoromethyl)phenyl]piperidine], the EC50 turned out to be 21 nM.

Take `COc1ccccc1-c1noc(-c2ccc(N3CCOCC3)c(C)c2)n1` [Compound I64, 4-{4-[3-(2-methoxyphenyl)-1,2,4-oxadiazol-5-yl]-2-methylphenyl}morpholine]: the EC50 came out at 98 nM.

For the compound `Cc1cc(-c2nc(-c3ccccc3OC(F)(F)F)no2)ccc1N1CCOCC1` [Compound I65, 4-(2-methyl-4-{3-[2-(trifluoromethoxy)phenyl]-1,2,4-oxadiazol-5-yl}phenyl)morpholine], the EC50 came to 130 nM.

`COc1ccc(F)cc1-c1noc(-c2ccc(N3CCOCC3)c(C)c2)n1` [Compound I66, 4-{4-[3-(5-fluoro-2-methoxyphenyl)-1,2,4-oxadiazol-5-yl]-2-methylphenyl}morpholine]: the EC50 stood at 28 nM.

For the compound `COc1ccccc1-c1noc(-c2ccc(N3CCCCC3)c(C)c2)n1` [Compound I67, 1-{4-[3-(2-methoxyphenyl)-1,2,4-oxadiazol-5-yl]-2-methylphenyl}piperidine], the concentration giving a half-maximal response (EC50) stood at 24 nM.

With `COc1ccc(F)cc1-c1noc(-c2ccc(N3CCCCC3)c(C)c2)n1` [Compound I68, 1-{4-[3-(5-fluoro-2-methoxyphenyl)-1,2,4-oxadiazol-5-yl]-2-methylphenyl}piperidine], the EC50 amounted to 10 nM.

As for `COc1ccc(F)cc1-c1noc(-c2ccc(-c3cccnc3C)c(C)c2)n1` [Compound I73, 3-{4-[3-(5-fluoro-2-methoxyphenyl)-1,2,4-oxadiazol-5-yl]-2-methylphenyl}-2-methylpyridine], the 50% effective concentration (EC50) is 341 nM.

Regarding `COc1ccc(F)cc1-c1noc(-c2ccc(N3CCCCC3C)nc2)n1` (stereo not shown) [Compound I75, 5-[3-(5-fluoro-2-methoxyphenyl)-1,2,4-oxadiazol-5-yl]-2-(2-methylpiperidin-1-yl)pyridine], the 50% effective concentration (EC50) is 1190 nM.

Consider `COCC1CCCN1c1ncc(-c2nc(-c3cc(F)ccc3OC)no2)cc1C` (stereo not shown) [Compound I76, 5-[3-(5-fluoro-2-methoxyphenyl)-1,2,4-oxadiazol-5-yl]-2-[2-(methoxymethyl)pyrrolidin-1-yl]-3-methylpyridine], for which the half-maximal effective concentration (EC50) turned out to be 522 nM.

In the case of `COc1ccc(F)cc1-c1noc(-c2ccc(-c3ccccc3C)c(C(=O)O)c2)n1` [Compound I79, 4-[3-(5-fluoro-2-methoxyphenyl)-1,2,4-oxadiazol-5-yl]-2′-methylbiphenyl-2-carboxylic acid], the EC50 stood at 657 nM.
